This assay has as its target T1, GPR103 Y214^5.38A (Homo sapiens, UniProt Q96P65, Y214A).
T1 construct: we used human full-length QRFPR-encoding plasmids; expressed in transfected cells; host or cells: HEK293 cells, pCAGGS vector
T1 sequence (Q96P65 1-431 Y214A): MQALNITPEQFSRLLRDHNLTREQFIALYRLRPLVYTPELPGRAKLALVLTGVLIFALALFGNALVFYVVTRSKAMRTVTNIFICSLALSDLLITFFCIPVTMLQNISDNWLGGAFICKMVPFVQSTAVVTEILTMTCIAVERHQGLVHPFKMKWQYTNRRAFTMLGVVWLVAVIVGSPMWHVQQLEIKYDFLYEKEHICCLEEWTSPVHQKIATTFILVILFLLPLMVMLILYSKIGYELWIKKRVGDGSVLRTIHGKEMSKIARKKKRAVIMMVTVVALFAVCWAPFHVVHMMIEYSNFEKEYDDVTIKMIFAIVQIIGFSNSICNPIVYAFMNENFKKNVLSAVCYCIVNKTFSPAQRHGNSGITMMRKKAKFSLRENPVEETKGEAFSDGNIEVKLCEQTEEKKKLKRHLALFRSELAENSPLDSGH
Nature of the assay: TGFα shedding assay; Exp. level WT (1:50). The assay is classed as cell-based.

Read-outs that look alike come from different tables or passages of the source. No end group written: not given here.

Broadly, the EC50 is the concentration needed to bring the measured effect to its halfway point. With TSGPLGNLAEELNGYSRKKGGFSFRF-NH2 [QRFP26], the Emax was 18.32 % WT (Exp. #1); 10.80 % WT (Exp. #2); 19.27 % WT (Exp. #3); 16.1% (mean, read-out: Emax); 16.6 ± 2.2% (n = 3, read-out: Emax). Moreover, the concentration for a half-maximal effect (EC50) (n = 3) was 105 nM.

(Values after PMC11187126, “Structure and dynamics of the pyroglutamylated RF-amide peptide QRFP receptor GPR103” (Nature Communications, 2024).)
